Experiments:
Format in all cases: cell-based
[1] = target: mouse μOR receptor (Flag-μOR-2x) (Mus musculus, UniProt P42866, M72T); test: G protein activation assay; conditions: Gi1-2-3 and Goa-b activation, HEK293 cells
μ-opioid receptor (μOR) = system: μ-opioid receptor (μOR)
[2] = target: T1, human μOR receptor fused to YFP (Homo sapiens, UniProt P35372)
[3] = target: T1, human μOR receptor fused to YFP; remark: listed apart in the source
SNAP-μOR receptor = SNAP-μOR receptor (Homo sapiens, UniProt P35372)
SNAP-μOR receptor, sequence (P35372 whole entry): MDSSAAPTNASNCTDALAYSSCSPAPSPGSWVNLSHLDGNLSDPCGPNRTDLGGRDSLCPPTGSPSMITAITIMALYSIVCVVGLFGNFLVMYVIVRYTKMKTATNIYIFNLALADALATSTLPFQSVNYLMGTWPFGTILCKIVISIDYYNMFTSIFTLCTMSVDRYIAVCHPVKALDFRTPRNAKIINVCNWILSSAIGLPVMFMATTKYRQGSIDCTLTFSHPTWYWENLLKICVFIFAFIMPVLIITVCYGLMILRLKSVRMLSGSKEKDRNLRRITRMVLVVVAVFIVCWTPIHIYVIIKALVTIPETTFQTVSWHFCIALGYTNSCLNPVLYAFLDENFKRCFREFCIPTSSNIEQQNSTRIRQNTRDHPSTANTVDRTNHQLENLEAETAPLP

T1 sequence (P35372 whole entry, the tested form may be a part): as the sequence (P35372 whole entry) above
mouse μOR receptor (Flag-μOR-2x), sequence (P42866 whole entry M72T): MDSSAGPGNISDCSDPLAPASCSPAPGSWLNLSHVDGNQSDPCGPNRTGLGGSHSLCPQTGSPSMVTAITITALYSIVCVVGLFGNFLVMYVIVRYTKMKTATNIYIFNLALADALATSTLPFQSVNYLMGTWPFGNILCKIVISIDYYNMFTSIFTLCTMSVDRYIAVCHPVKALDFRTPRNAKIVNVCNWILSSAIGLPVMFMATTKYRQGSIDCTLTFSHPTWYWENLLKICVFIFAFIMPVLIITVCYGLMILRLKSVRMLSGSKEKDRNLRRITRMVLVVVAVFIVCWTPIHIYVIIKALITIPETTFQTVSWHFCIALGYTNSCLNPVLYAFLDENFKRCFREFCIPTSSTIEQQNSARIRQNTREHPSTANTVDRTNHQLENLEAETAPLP

| Compound | Agonist behaviour in G protein assays [1] | Classification of agonism and bias (μ-opioid receptor (μOR)) | Recruitment of β-arrestin-1/2 (response) [2] | Recruitment of GRK2/5 (response) [3] | μOR internalization (response) (SNAP-μOR receptor) |
| --- | --- | --- | --- | --- | --- |
| C[C@@H](Cc1ccsc1)NC(=O)NC[C@H](Cc1ccc(O)cc1)N(C)C [PZM21] | full agonists | G protein-biased full agonists |  |  |  |
| COc1ccsc1CNCC[C@@]1(c2ccccn2)CCOC2(CCCC2)C1 [oliceridine] | full agonists | G protein-biased full agonists | nearly no response | nearly no response | nearly no response |
| [D-Ala^2, N-Me-Phe^4, Gly^5-ol]-Enkephalin acetate salt [DAMGO] |  | unbiased full agonists |  |  |  |
